According to patent US12427163B2, “Anti-VTCN1 antibodies and antibody drug conjugates” (Bluefin BioMedicine, Inc., priority 2017, dated 2025):

How the values were obtained:
4T1 tumors = experiment: 4T1 mouse triple negative breast cancer model in Balb/C mice; format: in vivo
Protocol: 6-8 week-old Balb/C mice were injected with 0.1 million of 4T1 cells in the mammary fat pad. On day 5, mice were randomized to 4 treatment groups, PBS, 6D9 (10 mg/kg), Gemcitabine (75 mg/kg), and 6D9 (10 mg/kg) plus gemcitabine (75 mg/kg). All treatments were by intraperitoneal injection and mice received a total of 5 treatments on days 5, 8, 12, 14, and 16.
The tumors and lymph nodes were harvested from these mice, and cells were dissociated and subjected to immune cell profiling by flow cytometry analysis.

human monocytes = experiment: Cytokine treatment of monocytes, expression of VTCN1, PD-L1, CD80 by flow cytometry; format: cell-based; conditions: 24, 48, or 73 hours
Protocol: VTCN1 is expressed in monocytes and macrophages in a tumor microenviroment, the expression induced by cytokines in tumor microenviroment. VTCN1 positive macrophages inhibit T cell activation. Monocytes from healthy donors were treated with IFNγ and IL-6 to assess VTCN1 expression. Monocytes were enriched from fresh PBMC from healthy donor using a monocyte enrichment kit from Stemcell Technologies, and the purity of the obtained monocytes is greater than 95%. Monocytes were cultured in 24 well plate with different concentration of INFγ or LI-6 for 24, 48, or 73 hours, expression of VTCN1, PD-L1, and CD80 was assessed by flow cytometry. […] CD80 was expressed at low level in monocytes, and is not very responsive to cytokine treatment.

Compound | 4T1 tumor growth (4T1 tumors; 6D9 10 mg/kg, gemcitabine 75 mg/kg, i.p., days 5, 8, 12, 14, 16) | tumor-free mice (complete response; CR) at end of study on day 65 (4T1 tumors; mouse, in vivo) | VTCN1 and PD-L1 expression in monocytes (human monocytes)
Nc1ccn([C@@H]2O[C@H](CO)[C@@H](O)C2(F)F)c(=O)n1 [Gemcitabine, gemcitabine] | totally inhibited tumor growth at the early stage of the study with tumor regrowth after 30 days | none of the mice in the gemcitabine alone group were tumor-free | –
IL6: cytokine added to human monocyte cultures | – | – | VTCN1 and PD-L1 expression was induced
